Measured values published in a melting point compilation (Tetko et al.).

SMILES	melting point [°C]
Cc1ccc(NC(=O)OC(C)(C)C)cc1O	109 to 111
O=C(O)c1ccc(-c2nc(C3CC3)no2)cc1	241 to 243
Cc1nn(C)c(Cl)c1CC(=O)O	169 to 171
CC1(C)Cc2c(sc(N)c2C#N)C(C)(C)N1	197 to 199
COCCn1c(S)nc2cc(Cl)ccc21	195 to 197
CC(C)c1oc(-c2ccccc2)nc1C(=O)O	153 to 155
Nc1onc(-c2ccco2)c1-c1ccc2c(c1)OCO2	138 to 140
O=C1NCCCCC1Oc1ccc(O)cc1 (stereo unspecified)	219 to 221
O=C1CCNc2ccc(F)cc2N1	147 to 149
Clc1cc(-n2cccn2)ccn1	111 to 113
Nc1cc(CC2CCCCC2)no1	106 to 108
CC(C)(C)OC(=O)N1C(=O)N(CC#N)C(C)(C)C1=O	149 to 151
COc1ccccc1N1CC(C(=O)O)CC1=O (stereo unspecified)	139 to 141
CCC1CCCCC1NC(=O)c1ccnc(F)c1 (stereo unspecified)	69 to 71
O=C(O)CC1(CC(=O)Nc2nccs2)CCCCC1	175 to 177
COc1ccc2oc(C)c(C(=O)O)c2c1	209 to 211
Cc1cc(C)c2nc(NN)cc(C)c2c1	113 to 115

SMILES	melting point [°C]
NC(=Nc1ccccc1)N1CCCCC1	61 to 63
O=C(O)CCCC(=O)Nc1cccnc1N1CCCC1	142 to 144
Nc1ccc(Br)cc1-c1nc(C2CC2)no1	123 to 125
O=C1CCC(C(F)(F)F)=NN1	75 to 77
O=C1COc2cc(Br)ccc2N1	192 to 194
Nc1nonc1-c1cccc(Br)c1	137 to 139
CC(C)NC(=O)NN	77 to 79
O=C(O)CCc1ccc(O)c(Cl)c1	84 to 86
Cc1ccc(-n2nc(C(=O)O)c3c2CCC3)c(F)c1	219 to 221
CC(NC(=O)CCl)c1ccco1 (stereo unspecified)	63 to 65
COC(=O)c1csc(S(=O)(=O)Cl)c1	54 to 56
Cc1cc(C)nc(-n2nccc2N)n1	183 to 185
COc1ccccc1C(C)N(C)C(=O)CCl (stereo unspecified)	66 to 68
CC1(C)CN(CC(N)=NO)CCO1	75 to 77
CCOc1ccc(N)c(C(F)(F)F)c1	69 to 71
O=Cc1csc(-c2ccc(Cl)cc2)n1	124 to 126
O=C(O)c1ccncc1N1CCCC1	259 to 261

Second part, the compound after the results:

melting point [°C]	SMILES
215 to 217	Cc1ccc(F)cc1S(=O)(=O)Nc1cccc(C(=O)O)c1
156 to 158	O=c1cc(I)cnn1Cc1ccccc1
66 to 68	COc1ccc(Cl)cc1NC(=O)CCN
225 to 227	CC(=O)Nc1ccc(S(=O)(=O)N(C)CC(=O)O)cc1
247 to 249	CN1C(=O)c2ccc(N)cc2C1=O
97 to 99	Cc1ccc(OCCCC(=O)Nc2ccc(CN)cc2)cc1
124 to 126	NCc1ccc(-c2nc3ccccc3s2)o1
199 to 201	O=C(O)c1sccc1-c1ccc(F)cc1
193 to 195	Nc1ccc(CC(=O)N2CCN(c3ncccn3)CC2)cc1
106 to 108	O=C(O)CCCSc1ccc(Cl)cc1
119 to 121	COc1ccccc1-c1cc(N)n(-c2ccccc2)n1
156 to 158	O=C(O)c1cc(CCc2ccccc2)ccc1O
114 to 116	CCN(CCO)c1ccc(NS(=O)(=O)c2ccc(N)cc2)cc1
265 to 267	CC1(c2ccc(I)cc2)NC(=O)NC1=O (stereo unspecified)
75 to 81	Nc1cccc(NS(N)(=O)=O)c1
131 to 135	Nc1ccccc1C(=O)Nc1cccc(Cl)c1
118 to 120	Cc1cc(C)c(S(=O)(=O)NCCC(=O)O)c(C)c1
155 to 158	CS(=O)(=O)Nc1ccc(C(=O)CCl)cc1
270 to 285	CCn1c(=O)c(=O)[nH]c2cc(C(=O)O)ccc21
136 to 138	Nc1cc(Cc2ccccc2)ccc1O
122 to 124	O=C(O)CCc1ccc(S(=O)(=O)N2CCCCCC2)cc1
258 to 260	NC(=O)c1ccc(-c2nn[nH]n2)cc1
